In patent publication US20130266557A1, “METHODS FOR TREATMENT OF A SARCOMA USING AN EPIMETABOLIC SHIFTER (COENZYME Q10)” (priority 2009, published 2013):

Experiments:
NCI-ES-0808 cells = test: Cell morphology by microscopy; assay type: cell-based, human
Method: NCIES0808 cells were plated in T25 flasks at a density of 2×10^6 cells per flask in media or media containing 50 uM/100 uM Q10. All treatment groups were run in triplicate. Cells were harvested at 0, 3, 6, 24 or 48 hours. Pictures were taken to examine cell morphology before harvesting. To harvest cells, media was removed but saved to be able to collect floating apoptotic cells. Cells were trypsinized with 1 ml of trypsin-EDTA and the enzyme action was stopped by addition of 4 ml complete media. Trypsinized cells were added to the appropriate tube containing the media with dead cells. Cells were centrifuged at 1200 rpm for 5 minutes and media was aspirated leaving behind the cell pellet for RNA extraction. […] RNA samples were eluted from spin columns in water; absorbance was measured at 260 nm, 230 nm and 280 nm. The purity of RNA was evaluated by the 260/230 and 280/230 ratios. The concentration of RNA in all of the samples was calculated from absorbance values at […]. […] The ct values from each of the samples were normalized to three housekeeping genes and fold regulation of Q10 treated groups was compared to time matched controls from cells grown in regular media was calculated.
The morphology of NCI-ES-0808 cells was monitored following treatment with CoQ10. […]

cancer = settings: Mazzio 2006; cited from earlier work
[1] = system: keratinocytes and dermal fibroblasts; test: Proliferation and migration of normal cells; assay type: cell-based; settings: including keratinocytes and dermal fibroblasts
Excerpt: Moreover, a surprising divergent effect was observed on normal cells as compared to oncogenic cells.

normal fibroblast = test: Bcl2 level on co-administration with VEGF; assay type: cell-based; settings: co-administration of CoQ-10 and VEFG
Excerpt: (§1) The term “Multidimensional Intracellular Molecule (MIM)”, is an isolated version or synthetically produced version of an endogenous molecule that is naturally produced by the body and/or is present in at least one cell of a human. A MIM is capable of entering a cell and the entry into the cell includes complete or partial entry into the cell as long as the biologically active portion of the molecule wholly enters the cell. MIMs are capable of inducing a signal transduction and/or gene expression mechanism within a cell. MIMs are multidimensional because the molecules have both a therapeutic and a carrier, e.g., drug delivery, effect. MIMs also are multidimensional because the molecules act one way in a disease state and a different way in a normal state.

melanoma cell = test: Bcl2 level in the presence of VEGF; assay type: cell-based
Excerpt: as §1

NCIES0808 cells = test: Real-time PCR, Human Mitochondrial arrays; assay type: cell-based; settings: CoQ10 doses and time points examined (50/100 uM; 3-48 hours)
Method: NCIES0808 cells were plated in T25 flasks at a density of 2×10^6 cells per flask in media or media containing 50 uM/100 uM Q10. All treatment groups were run in triplicate. Cells were harvested at 0, 3, 6, 24 or 48 hours. Pictures were taken to examine cell morphology before harvesting. To harvest cells, media was removed but saved to be able to collect floating apoptotic cells. Cells were trypsinized with 1 ml of trypsin-EDTA and the enzyme action was stopped by addition of 4 ml complete media. Trypsinized cells were added to the appropriate tube containing the media with dead cells. Cells were centrifuged at 1200 rpm for 5 minutes and media was aspirated leaving behind the cell pellet for RNA extraction. RNA isolation from cell pellets was carried out with the RNeasy kit (Qiagen, Valencia Calif.) according to the manufacturer's instructions. RNA samples were eluted from spin columns in water; absorbance was measured at 260 nm, 230 nm and 280 nm. The purity of RNA was evaluated by the 260/230 and 280/230 ratios. The concentration of RNA in all of the samples was calculated from absorbance values at […]. […] The ct values from each of the samples were normalized to three housekeeping genes and fold regulation of Q10 treated groups was compared to time matched controls from cells grown in regular media was calculated. […]

[2] = human plasma; cited from earlier work
mitochondrial complex II = mitochondrial complex II (Homo sapiens, UniProt O14521+P21912+Q99643); settings: cancer cells; Mazzio and Soliman 2004; cited from earlier work
mitochondrial complex II, sequence (P31040 43-664 partner): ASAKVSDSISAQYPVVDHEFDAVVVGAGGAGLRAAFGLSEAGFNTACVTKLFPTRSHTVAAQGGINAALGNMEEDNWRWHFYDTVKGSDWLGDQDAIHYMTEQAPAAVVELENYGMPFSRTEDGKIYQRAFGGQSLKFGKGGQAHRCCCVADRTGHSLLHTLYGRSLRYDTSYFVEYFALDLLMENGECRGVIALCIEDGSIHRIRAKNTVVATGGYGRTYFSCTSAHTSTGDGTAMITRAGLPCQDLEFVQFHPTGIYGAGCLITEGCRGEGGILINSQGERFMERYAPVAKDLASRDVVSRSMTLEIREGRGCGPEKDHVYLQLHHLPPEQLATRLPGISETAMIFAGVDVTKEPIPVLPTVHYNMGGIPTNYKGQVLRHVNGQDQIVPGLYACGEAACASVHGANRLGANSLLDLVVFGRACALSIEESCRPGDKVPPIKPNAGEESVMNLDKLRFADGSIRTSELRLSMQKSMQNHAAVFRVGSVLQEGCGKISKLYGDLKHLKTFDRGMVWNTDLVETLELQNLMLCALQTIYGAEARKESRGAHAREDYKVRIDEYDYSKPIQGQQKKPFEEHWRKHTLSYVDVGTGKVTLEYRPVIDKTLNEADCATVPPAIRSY
mitochondrial complex II, sequence (P21912 29-280): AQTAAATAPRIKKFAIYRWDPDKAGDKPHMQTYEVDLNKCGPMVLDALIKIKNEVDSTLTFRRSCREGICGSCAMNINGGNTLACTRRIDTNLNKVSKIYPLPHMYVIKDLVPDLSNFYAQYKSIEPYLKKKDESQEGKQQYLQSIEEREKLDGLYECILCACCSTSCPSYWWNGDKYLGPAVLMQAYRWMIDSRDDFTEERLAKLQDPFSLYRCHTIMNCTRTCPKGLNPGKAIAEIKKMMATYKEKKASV
mitochondrial complex II, sequence (Q99643 30-169): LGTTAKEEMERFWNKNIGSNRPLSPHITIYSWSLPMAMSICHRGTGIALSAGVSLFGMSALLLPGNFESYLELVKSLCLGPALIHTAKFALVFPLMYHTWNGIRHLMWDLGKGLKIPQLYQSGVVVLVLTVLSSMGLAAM
mitochondrial complex II, sequence (O14521 57-159): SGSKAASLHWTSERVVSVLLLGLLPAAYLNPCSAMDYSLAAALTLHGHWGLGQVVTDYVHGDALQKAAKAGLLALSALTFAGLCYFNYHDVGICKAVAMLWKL

Coenzyme Q10 [CoQ10]
Differences in cell number or morphology (FIG. 1 legend) (NCI-ES-0808 cells; 3, 6, 24, 48 hours, 50 uM and 100 uM Q10): no distinct differences in either cell number or morphology | Differences in morphology, apoptotic cells or cell number by microscopy (NCI-ES-0808 cells; among treatment groups, 3 hrs and 6 hrs post treatment (FIG. 1)): No differences in morphology, number of visually ascertainable apoptotic cells or cell number | Lethality against cancer (cancer): did not find CoQ10 to be as lethal as expected | Effect on normal cells [1]: increased proliferation and migration | Level of Bcl2 (normal fibroblast): no effect on the levels of Bcl2 | Level of Bcl2 (melanoma cell): decreased level of Bcl2 | Genes modulated on Human Mitochondrial arrays (NCIES0808 cells): did not reveal any modulated genes | Share of the molecule found in the reduced form (Q10H2) [2]: 90% | Effect on Vmax of mitochondrial complex II activity (mitochondrial complex II): increase the Vmax of mitochondrial complex II activity
